Values of other authors, collected in PMC9576820 (The Journal of membrane biology, 2022).

Tested on: host cells, proteases, serum proteins

RRGWALRLVLAY [ARVA]
inhibition of antimicrobial activity by host factors: potently inhibited by host cell binding, proteolysis, and serum protein binding
